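48-hour exposure; five concentrations; linearly interpolated endpoints. The concentration for 50% growth inhibition is given as GI50.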 Calls of active or inactive are those of the source. No stated cut-off is given here; in the data, active = GI50 up to about 1.1 µM and inactive = higher.
How the values were obtained:
Test in all cases: growth of human tumour cells (NCI), 48 h
RXF 393 = system: RXF 393
LOX IMVI = system: LOX IMVI
HOP-62 = system: HOP-62
NCI-H522 = system: NCI-H522
OVCAR-4 = system: OVCAR-4
CCRF-CEM = system: CCRF-CEM
Malme-3M = system: Malme-3M
HL-60 = system: HL-60
NCI-H460 = system: NCI-H460
RPMI-8226 = system: RPMI-8226
NCI-H226 = system: NCI-H226
TK-10 = system: TK-10
SNB-19 = system: SNB-19
COLO 205 = system: COLO 205
UACC-257 = system: UACC-257
A549 = system: A549
SK-MEL-5 = system: SK-MEL-5
IGROV-1 = system: IGROV-1
ACHN = system: ACHN
T47D = system: T47D

Measured: GI50

Cc1c(CCO)c(O)n2c(nc3ccccc32)c1C#N
inactive: RXF 393 > 100 µM | LOX IMVI 68.7 µM | HOP-62 > 100 µM | NCI-H522 34.7 µM | OVCAR-4 39.4 µM | CCRF-CEM 29.4 µM | Malme-3M > 100 µM | HL-60 10 µM | NCI-H460 26.7 µM | RPMI-8226 26.7 µM | NCI-H226 98.4 µM | TK-10 > 100 µM | SNB-19 30.3 µM | COLO 205 > 100 µM | UACC-257 > 100 µM | A549 > 100 µM | SK-MEL-5 21.8 µM | IGROV-1 68.4 µM | ACHN > 100 µM

c1ccc(SC(Sc2ccccc2)c2ccc3c(c2)OCO3)cc1
inactive: RXF 393 > 100 µM | LOX IMVI > 100 µM | HOP-62 > 100 µM | NCI-H522 85.9 µM | T47D > 100 µM | OVCAR-4 > 100 µM | CCRF-CEM > 100 µM | Malme-3M > 100 µM | HL-60 > 100 µM | NCI-H460 > 100 µM | NCI-H226 23.6 µM | TK-10 > 100 µM | SNB-19 > 100 µM | UACC-257 > 100 µM | A549 > 100 µM | SK-MEL-5 > 100 µM | IGROV-1 > 100 µM | ACHN > 100 µM

CCOC(=O)c1c(-c2ccc(OC)cc2)c(C#N)c(=S)n(C2OC(COC(C)=O)C(OC(C)=O)C(OC(C)=O)C2OC(C)=O)c1C (centres undefined)
inactive: RXF 393 > 100 µM | LOX IMVI > 100 µM | HOP-62 > 100 µM | NCI-H522 70.8 µM | T47D 47.6 µM | OVCAR-4 20.9 µM | CCRF-CEM 61.9 µM | Malme-3M > 100 µM | HL-60 75.7 µM | NCI-H460 > 100 µM | NCI-H226 > 100 µM | TK-10 > 100 µM | SNB-19 > 100 µM | COLO 205 > 100 µM | UACC-257 > 100 µM | A549 > 100 µM | SK-MEL-5 > 100 µM | IGROV-1 > 100 µM | ACHN 58.2 µM

C/C(Cl)=N\OC(=O)Nc1ccc(C)cc1
inactive: LOX IMVI 17.5 µM | HOP-62 46.9 µM | T47D 16 µM | OVCAR-4 18.5 µM | CCRF-CEM 2.04 µM | Malme-3M 16.9 µM | HL-60 2.22 µM | NCI-H460 18.1 µM | RPMI-8226 > 10 µM | TK-10 15.2 µM | SNB-19 > 100 µM | COLO 205 16.2 µM | UACC-257 18.7 µM | A549 18.2 µM | SK-MEL-5 17.7 µM | IGROV-1 16.7 µM | ACHN 15.7 µM

CCOP(C)(=O)C(Cc1c[nH]c2ccccc12)C(=O)O (centres undefined)
inactive: HOP-62 > 100 µM | NCI-H522 > 100 µM | T47D > 100 µM | CCRF-CEM > 100 µM | Malme-3M > 100 µM | HL-60 > 100 µM | RPMI-8226 > 100 µM | SNB-19 > 100 µM | COLO 205 > 100 µM | A549 > 100 µM | SK-MEL-5 > 100 µM | IGROV-1 > 100 µM | ACHN > 100 µM

Cc1cc(C)n(-c2nc3ccccc3c(=O)n2-c2ccccc2)n1
inactive: RXF 393 > 100 µM | LOX IMVI > 100 µM | HOP-62 > 100 µM | NCI-H522 > 100 µM | T47D > 100 µM | OVCAR-4 > 100 µM | CCRF-CEM > 100 µM | Malme-3M > 100 µM | HL-60 > 100 µM | NCI-H460 > 100 µM | NCI-H226 > 100 µM | TK-10 > 100 µM | SNB-19 > 100 µM | COLO 205 > 100 µM | UACC-257 > 100 µM | A549 > 100 µM | SK-MEL-5 > 100 µM | IGROV-1 > 100 µM | ACHN > 100 µM

Cc1nnc2nc(-c3ccc(Cl)cc3Cl)cc(-c3ccc(Cl)cc3)n12
inactive: LOX IMVI > 100 µM | HOP-62 > 100 µM | T47D 89.1 µM | OVCAR-4 23.3 µM | CCRF-CEM > 100 µM | Malme-3M > 100 µM | HL-60 > 100 µM | NCI-H460 82.6 µM | RPMI-8226 35.6 µM | NCI-H226 > 100 µM | TK-10 > 100 µM | SNB-19 > 100 µM | COLO 205 13.7 µM | UACC-257 > 100 µM | A549 76.4 µM | SK-MEL-5 68.5 µM | ACHN > 100 µM

CC(=O)/C(=C/NC(=S)Nc1ccc(Cl)c(Cl)c1)C(=O)Nc1ccccc1C
inactive: RXF 393 29.4 µM | LOX IMVI 34 µM | HOP-62 33.4 µM | T47D 4.65 µM | OVCAR-4 18.6 µM | HL-60 17.1 µM | NCI-H460 38.5 µM | NCI-H226 13.8 µM | TK-10 43.8 µM | SNB-19 26.8 µM | COLO 205 28.2 µM | UACC-257 31.7 µM | A549 34.1 µM | SK-MEL-5 19.2 µM | IGROV-1 27.4 µM | ACHN 32.6 µM

NC(=S)NNC(=O)CCC(=O)Nc1ccc(Cl)cc1Cl
inactive: RXF 393 > 100 µM | LOX IMVI 66.8 µM | HOP-62 > 100 µM | NCI-H522 > 100 µM | OVCAR-4 > 100 µM | CCRF-CEM > 100 µM | Malme-3M > 100 µM | HL-60 > 100 µM | NCI-H460 > 100 µM | RPMI-8226 43.5 µM | NCI-H226 > 100 µM | TK-10 > 100 µM | SNB-19 > 100 µM | COLO 205 > 100 µM | UACC-257 > 100 µM | A549 > 100 µM | SK-MEL-5 62.7 µM | IGROV-1 > 100 µM | ACHN > 100 µM

NC(=O)c1cc([N+](=O)[O-])cc([N+](=O)[O-])c1 [NITROMIDE]
inactive: RXF 393 > 100 µM | LOX IMVI > 100 µM | HOP-62 > 100 µM | NCI-H522 > 100 µM | OVCAR-4 > 100 µM | CCRF-CEM > 100 µM | Malme-3M 69.3 µM | HL-60 40.9 µM | NCI-H460 > 100 µM | RPMI-8226 > 100 µM | NCI-H226 > 100 µM | TK-10 > 100 µM | SNB-19 > 100 µM | COLO 205 30.3 µM | UACC-257 > 100 µM | A549 > 100 µM | SK-MEL-5 > 100 µM | IGROV-1 > 100 µM | ACHN > 100 µM

COc1cc(C/C=C/c2ccccc2)c(OC)cc1O [VIOLASTYRENE]
inactive: LOX IMVI 17.7 µM | NCI-H522 20.9 µM | T47D 17.4 µM | OVCAR-4 18 µM | CCRF-CEM 17.1 µM | Malme-3M 22.6 µM | HL-60 23.6 µM | NCI-H460 20.3 µM | RPMI-8226 15.6 µM | NCI-H226 24.5 µM | TK-10 18.8 µM | SNB-19 30.5 µM | COLO 205 22.3 µM | UACC-257 29.4 µM | A549 43.9 µM | SK-MEL-5 23.7 µM | IGROV-1 18.3 µM | ACHN 23.6 µM

— ChEMBL document CHEMBL1201862, “PubChem BioAssay data set” (2004)
